Results as given in PubChem BioAssay (NCI).
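The compound was tested at five concentrations on cells cultured in 96-well plates, with a 48-hour exposure period. At the GI50, growth is halved. Definition used: TGI = concentration required for complete inhibition of growth.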

Assays:
Assay in all cases: DTP human tumour cell line panel, 48 h
RXF 393 renal = test system: RXF 393 renal
OVCAR-4 ovarian = test system: OVCAR-4 ovarian
SR leukemia = test system: SR leukemia
PC-3 prostate = test system: PC-3 prostate
ACHN renal = test system: ACHN renal
SNB-19 CNS = test system: SNB-19 CNS
OVCAR-8 ovarian = test system: OVCAR-8 ovarian
SN12C renal = test system: SN12C renal
MCF7 breast = test system: MCF7 breast
SW-620 colon = test system: SW-620 colon

Row | SMILES | TGI (RXF 393 renal) [µM] | TGI (OVCAR-4 ovarian) [µM] | TGI (SR leukemia) [µM] | TGI (PC-3 prostate) [µM] | TGI (ACHN renal) [µM] | TGI (SNB-19 CNS) [µM] | TGI (OVCAR-8 ovarian) [µM] | TGI (SN12C renal) [µM] | TGI (MCF7 breast) [µM] | TGI (SW-620 colon) [µM] | GI50 (RXF 393 renal) [µM] | GI50 (OVCAR-4 ovarian) [µM] | GI50 (SR leukemia) [µM] | GI50 (PC-3 prostate) [µM] | GI50 (ACHN renal) [µM] | GI50 (OVCAR-8 ovarian) [µM] | GI50 (SN12C renal) [µM] | GI50 (SW-620 colon) [µM] | GI50 (MCF7 breast) [µM] | GI50 (SNB-19 CNS) [µM]
1 | CO/C=C(/C(=O)OC)c1ccccc1[C@@H]1CC1c1cccc(F)c1 (some centres undefined) | > 100 | 96.7 | > 100 | > 100 | 62.7 | > 100 | > 100 | 98.4 | > 100 | – | – | – | – | – | – | – | – | – | – | –
2 | Cc1nc2c(n1C)C(=O)c1nc(CBr)[nH]c(=O)c1C2=O | > 100 | – | – | – | > 100 | > 100 | > 100 | > 100 | – | > 100 | – | – | – | – | – | – | – | – | – | –
3 | Cc1cccc2cc3c(ccc4ccccc43)c[n+]12 | > 100 | – | > 100 | > 100 | > 100 | 50.9 | > 100 | 20.3 | > 100 | > 100 | – | – | – | – | – | – | – | – | – | –
4 | N#Cc1c(NC(=S)Nc2ccc(Cl)cc2)sc2c1CCCC2 | > 100 | > 100 | 89.1 | > 100 | > 100 | > 100 | > 100 | 50.4 | > 100 | > 100 | – | – | – | – | – | – | – | – | – | –
5 | COc1ccc2c(c1)CCN=C2Cc1cc(OC)c(OC)cc1CCCl | 91.4 | > 100 | > 100 | > 100 | > 100 | > 100 | > 100 | > 100 | > 100 | > 100 | – | – | – | – | – | – | – | – | – | –
6 | CC(=O)Oc1c(C)c2c(O)c3c1C1=C(OCOC1=C(C)C3=O)/C(C)=C\C(C)(O)C(O)C(C)C(O)C1C(=O)OC(C(C)C1O)C(C)(O)/C=C/C=C(C)C(=O)N2 (centres undefined) | 70.4 | – | 83.3 | > 100 | > 100 | > 100 | > 100 | > 100 | > 100 | > 100 | – | – | – | – | – | – | – | – | – | –
7 | CN(C)c1nc(N(C)C)nc(N(C)CN(C)c2ccc(Cl)cc2)n1 | > 100 | > 100 | – | – | > 100 | > 100 | > 100 | > 100 | – | > 100 | – | – | – | – | – | – | – | – | – | –
8 | O=C(C[C@H](NC(=O)OCc1ccccc1)C(=O)NC1Cc2ccccc2OC1=O)OCc1ccccc1 (some centres undefined) | > 100 | – | > 100 | 70.2 | – | > 100 | > 100 | > 100 | 80.6 | – | – | – | – | – | – | – | – | – | – | –
9 | CCOC(=O)C[C@@H]1C2(C=C[C@@]13CO3)OCC(C)(C)CO2 | > 100 | 97.4 | > 100 | > 100 | – | – | > 100 | > 100 | > 100 | > 100 | – | – | – | – | – | – | – | – | – | –
10 | CN(c1cc2ncc(=O)[nH]c2cc1NC(N)=NCc1ccc(Cl)cc1)C1CCCCC1 | 13 | 17.2 | 5.23 | 12.5 | 14.2 | – | 23.3 | 15.5 | 7.52 | 11.2 | 5.79 | 6.21 | 1.49 | 5.94 | 7.12 | 10.4 | 7.23 | 4.33 | 1.75 | –
11 | CC(C)(C)OC(=O)NCC(=O)NC1c2ccsc2/C(=N/O)[C@H]1O (some centres undefined) | > 100 | > 100 | > 100 | > 100 | – | > 100 | > 100 | > 100 | > 100 | > 100 | – | – | – | – | – | – | – | – | – | –
12 | CCN(CC)CCCC(C)Nc1ccnc2cc3ccccc3cc12 (centres undefined) | 31.4 | 7.92 | > 100 | > 100 | 21 | 84.5 | 54.2 | > 100 | 39 | > 100 | – | – | – | – | – | – | – | – | – | –
13 | CCN1C=C/C(=C\C=C/c2cc[n+](CC)c3ccccc23)c2ccccc21 | 70.3 | 16.9 | 9.65 | 17.3 | 33.8 | 15.2 | 17.1 | 12.3 | 20 | 16.2 | – | – | – | – | – | – | – | – | – | –
14 | CC(C)CCC[C@@H](C)[C@H]1CC[C@H]2[C@@H]3CC[C@H]4C[C@H](N)CC[C@]4(C)[C@H]3CC[C@]12C | > 100 | 65.4 | – | 20.2 | 36.2 | 46.9 | 86.4 | > 100 | 68.4 | > 100 | – | – | – | – | – | – | – | – | – | –
15 | CCCCCCCCCCCCCCCc1ccc(OCC(O)CO)cc1 (centres undefined) | 35.4 | 40.8 | > 100 | – | > 100 | > 100 | 72.7 | 33.2 | – | 49.1 | – | – | – | – | – | – | – | – | – | –
16 | COc1ccc(C2CC(c3cccc(Nc4ccncc4)c3)=NN2c2ccc(Cl)cc2)cc1 (centres undefined) | 3.03 | 3.06 | 3.38 | 2.96 | 2.9 | 3.23 | – | 3.07 | 3.63 | 3.19 | 1.59 | 1.58 | 1.35 | 1.44 | 1.56 | – | 1.6 | 1.61 | 1.83 | 1.66
17 | O=c1cc(-c2ccc(O)cc2)n(C2CC2)c2ccccc12 | 8.42 | – | > 100 | 92.3 | 5.99 | 50.1 | 47.1 | 32.3 | 35.5 | 26.7 | – | – | – | – | – | – | – | – | – | –
18 | c1ccc(C2CC(c3cccc(Nc4ccncc4)c3)=NN2c2ccccc2)cc1 (centres undefined) | – | 3.43 | – | 3.58 | 3.05 | 3 | – | 3.06 | 3.29 | 3.27 | – | 1.72 | – | 1.69 | 1.69 | – | 1.65 | 1.65 | 1.61 | 1.63
19 | O=Cc1cc([N+](=O)[O-])no1 | > 100 | 35.8 | > 100 | > 100 | – | > 100 | > 100 | > 100 | 86.9 | > 100 | – | – | – | – | – | – | – | – | – | –
